According to patent US20130071874A1, “SYSTEM AND METHOD FOR ANTI-CANCER DRUG CANDIDATE EVALUATION” (priority 2010, published 2013):

Experiments:
[1] = test system: ovarian cancer cell line, CAOV-3; assay: MiCK-type apoptosis drug screening assay, CAOV-3; assay type: cell-based; details: CAOV-3 cells; as Example 1 but with higher drug concentrations
Source text: (§1) KU=(VmaxDrug Treated−VmaxControl)×60×y/(ODcell−ODblank).
(§2) Vmax is the maximum kinetic rate, which is the slope of the steep increase in the OD v. time plot when cells are undergoing apoptosis. Vmax in this equation is given in milli-optical density units/hour (mOD/h). ODcell is the initial OD of the control containing cells and ODblank is the initial OD of a blank well containing only medium or medium and drug (the drug may be omitted for some drugs, but for colored drugs in particular it may be included in the blank). y is a coefficient dependent on the cell type being assayed and may be determined experimentally through observation of the cell lines. Further information regarding this equation may be found in Kravtsov et al.
Cancer cells were obtained from exponentially growing cultures in RPMI 1640 medium without phenol red supplemented with 10% heat-inactivated fetal bovine serum, 100 U/ml penicillin and 100 μg/mL streptomycin (complete medium) in humidified air with 5% CO2 at 37° C. Cells were harvested, washed with pre-warmed medium and resuspended in complete medium. Appropriate cell counts and viability were tested.
Cells from each cell line in complete medium were placed in wells of a 96-well plate at a concentration of 2 to 5×10^5 cells/ml. Various dilutions of the drug candidate, Idarubicin, were added to the wells in 5 μL aliquots. Final concentrations for the drug candidate were 0.01, 0.1, 0.5, 1, 5, 10 and 20 μM. The plates were incubated at 37° C. for 30 minutes in a humidified 5% CO2 atmosphere. After this adjustment period, 30 μl of sterile mineral oil was layered on top of each well. The microtiter plate was placed in an incubated spectrophotometer chamber (37° C.) and OD at 600 nm was measured every 5 minutes for a period of 48 hours. The reader was calibrated to zero absorbance using well containing only complete medium and no cells. All tests were performed in triplicate.
Data acquisition and computation was performed using appropriate software. OD readings were plotted against time to provide a kinetic representation of cell responses to the drugs and drug candidate. Kinetic units were calculated for each test well. A kinetic unit below three was considered a negative response and above 3 was considered a positive response. A kinetic unit between 1.5 and 3 was considered a marginal response.
A variety of anti-cancer drugs were tested against a single ovarian cancer cell line, CAOV-3, to determine their suitability for use against ovarian cancer. Tests were performed in a manner similar to those in Example 1, but with higher drug concentrations.

[2] = test system: MOLT-3, an acute T-cell lymphoblastic leukemia; assay: MiCK-type apoptosis drug screening assay (OD 600 nm, kinetic units), MOLT-3; assay type: cell-based, human; details: MOLT-3 cells; 0.01-20 μM
Source text: as §1
as §2, with “al. […]” for “al.”
(§3) Cells from each cell line in complete medium were placed in wells of a 96-well plate at a concentration of 2 to 5×10^5 cells/ml. […] The microtiter plate was placed in an incubated spectrophotometer chamber (37° C.) and OD at 600 nm was measured every 5 minutes for a period of 48 hours. The reader was calibrated to zero absorbance using well containing only complete medium and no cells. […]
(§4) Data acquisition and computation was performed using appropriate software. OD readings were plotted against time to provide a kinetic representation of cell responses to the drugs and drug candidate. Kinetic units were calculated for each test well. […]

[3] = test system: RAMOS, a B cell line derived from Burkitt's lymphoma; assay: MiCK-type apoptosis drug screening assay (OD 600 nm, kinetic units), RAMOS; assay type: cell-based, human; details: 0.01-20 μM
Source text: as §1
as §2, with “al. […]” for “al.”
as §3, §4

SMILES	response / suitability (in words) [1]	kinetic unit readings versus concentration (in words) [2]	response versus concentration (in words) [3]
CO[C@@]12[C@H](COC(N)=O)C3=C(C(=O)C(C)=C(N)C3=O)N1C[C@@H]1N[C@@H]12 [Mitomycin]	positive response at reasonable concentrations	–	–
O=C1c2c(O)ccc(O)c2C(=O)c2c(NCCNCCO)ccc(NCCNCCO)c21 [Mitoxantrone]	positive response at reasonable concentrations	–	–
CCC1=C[C@@H]2CN(C1)Cc1c([nH]c3ccccc13)[C@@](C(=O)OC)(c1cc3c(cc1OC)N(C)[C@H]1[C@@](O)(C(=O)OC)[C@H](OC(C)=O)[C@]4(CC)C=CCN5CC[C@]31[C@@H]54)C2 [Vinorelbine]	not suitable drugs for treating ovarian cancer	–	–
CC(=O)[C@]1(O)Cc2c(O)c3c(c(O)c2[C@@H](O[C@H]2C[C@H](N)[C@H](O)[C@H](C)O2)C1)C(=O)c1ccccc1C3=O [Idarubicin, 4-demethoxydaunorubicin]	positive response at reasonable concentrations	higher kinetic unit readings at lower concentrations	positive response was seen in the Ramos cell line only at high concentrations
COc1cccc2c1C(=O)c1c(O)c3c(c(O)c1C2=O)C[C@@](O)(C(C)=O)C[C@@H]3O[C@H]1C[C@H](N)[C@H](O)[C@H](C)O1 [Daunorubicin]	positive response at reasonable concentrations	–	–
CCc1c2c(nc3ccc(OC(=O)N4CCC(N5CCCCC5)CC4)cc13)-c1cc3c(c(=O)n1C2)COC(=O)[C@]3(O)CC [Irinotecan]	need to use high concentrations of the drug to achieve a positive response	–	–
O=C1[O][Pt]2([NH][C@@H]3CCCC[C@H]3[NH]2)[O]C1=O [Oxaliplatin]	not suitable drugs for treating ovarian cancer	–	–
